Results on 85 molecules are retold here after a melting point compilation (Tetko et al.; mined from patent text by program, amines drawn as free bases though some values may be those of a salt).

Usually melting point stands for the temperature, or range, at which the solid turns liquid.

As for `COC(=O)[C@@H]1C[C@H](C(=O)OC(C)(C)C)N(C(=O)CNC(=O)OC(C)(C)C)[C@@H]1c1ccccc1` (racemic), the melting point turned out to be 137 °C. Under `COc1ccc(-c2ccc3cc(C(=O)O)ccc3c2)cc1C12CC3CC(CC(C3)C1)C2` stands 321 °C; under `COc1ccc(C(=O)N(c2ccccc2)c2ccc(OCCCN(C)C)cc2)c(OC)c1`, 78.5 to 82.5 °C; under `CCc1cc(=O)c(C(N)=O)c(CC)[nH]1`, 254 °C.

The molecule `O=C(NC1CCC(CCN2CCN(c3nccc4c3OCC4)CC2)CC1)c1ccc(N2CCS(=O)(=O)CC2)cc1` (stereo not given) yielded a melting point of 260 °C. Under `Cc1c2c(cn1CC(N)=O)CN=C(c1ccccc1Cl)c1cc(Cl)ccc1-2` stands 142 to 145 °C. Under `N=C(N)NCCc1ccc(OCCCC(c2ccccc2)(c2ccccc2)c2ccccc2)cc1` stands 169 to 170 °C; under `O=C(O)c1cnc2n1CCc1ccccc1C2=C1CCN(CCc2ccc(OCc3ccc4ccccc4n3)cc2)CC1`, 174 °C. `O=Cc1cc(OCCl)c(O)cc1[N+](=O)[O-]` had a melting point of 160 to 161 °C. As for `C#CCOCc1c(C)nc2c(OCc3ccccc3OC)cccn12`, the figure is 107 to 108 °C. As for `NC(=S)NC(c1ccccc1)c1ccc(Cl)cc1` (stereo not given), the figure is 173 to 175 °C; as for `O=C(Nc1ccccc1Oc1ccc(Cl)cc1Cl)C1CCN(C(=O)c2ccccc2)CC1`, 176 to 177 °C. As for `c1ccc(Cc2cnc(-c3ccccc3)c(-c3ccccc3)n2)cc1`, the figure is 118 to 119 °C; as for `CN(C)c1c(C#N)c(C(F)(F)F)nn1-c1c(Cl)cc(C(F)(F)F)cc1Cl`, 105 to 107 °C; as for `COCCc1nc2c(N)nc3ccccc3c2n1CCCCNC(=O)c1nccc2ccccc12`, 61 to 63 °C. As to `CCOC(=O)CCc1c(-c2ccccc2)c2cc(C)c(C)cc2c(=O)n1C`, the melting point lay within 138 to 139 °C. Under `COc1ccc(C=O)c(OC)c1I` stands 103 °C. As for `COC(=O)c1cc(-c2cc(C)[nH]c2C)nn1C`, the figure is 63 to 65 °C.

Regarding `CCOC(=O)CN1CCC(CNc2ccc(Cl)cc2C(=O)Nc2ccc(Cl)cn2)CC1`, the melting point fell in the range of 61 to 63 °C.

For the molecule `COc1cc2c(cc1Nc1ncc(Cl)c(N[C@H]3[C@@H](C(N)=O)[C@@H]4C=C[C@H]3C4)n1)CCN(CC(=O)N1CCOCC1)CC2`, the melting point was found to be 163 °C. Under `Cc1ccc2c(n1)sc1c(O)cnnc12` stands over 300 °C; under `O=S(=O)(Cl)CCCCCc1ccc(OCc2ccccc2)cc1`, 58 to 60 °C. As to `CCC1(C(=O)C=Cc2ccc(C(=O)O)cc2)CC1`, the melting point worked out at 184 °C.

Molecule `CC(=O)c1cc(C(C)=O)c(OCCCCC#N)cc1O` came in with a melting point of 105 to 106 °C. As for `O=S(=O)(c1ccccc1)n1cc(-c2ccnc(N[C@H]3CC[C@H](O)CC3)n2)c2ccccc21`, the figure is 132 to 133 °C. Under `CC(CC(O)=S)(c1ccc(OCc2ccc3ccccc3n2)cc1)c1ccc(OCc2ccc3ccccc3n2)cc1` stands 92 to 94 °C; under `CCOC(=O)c1nc(-c2cccc([N+](=O)[O-])c2)[nH]c1-c1ccc(OC)cc1`, 208 to 210 °C; under `O=C1OCc2c1oc1cccc(F)c1c2=O`, 224 to 226 °C.

The molecule `O=C1CCCC(c2ccc(O)c(O)c2)N1c1ccc(Cl)cc1` (stereo not given) showed a melting point of 205 to 207 °C.

For the molecule `N#CCC(=O)Nc1c([N+](=O)[O-])cnn1-c1c(Cl)cc(C(F)(F)F)cc1Cl`, the melting point lay within 221 to 223 °C.

`COC(=O)Cc1ccc(C(=O)CN2CCN(c3ccncc3)CC2)cc1` displayed a melting point of 127 to 129 °C. Molecule `CCCCc1c(-c2ncccc2C(=O)O)n(-c2ccccc2)n(-c2ccccc2)c1=O` showed a melting point of 139 to 141 °C. As for `COc1cc2ncnc(Nc3ccc(F)c(Cl)c3)c2cc1OCCCC1OCCO1`, the figure is 170 to 171 °C; as for `Cc1cc(N2CCN(c3c(C)c(C)c4c(c3C)CC(C)(C)O4)CC2)ccc1Cl`, 168 to 171 °C; as for `CC(C)(C)OC(=O)NNCc1cccc(C#N)c1`, 75 to 80 °C. As for `O[C@H]1COC(c2cc3ccccc3[nH]2)=N[C@@H]1c1ccccc1` (racemic), the figure is 204 °C.

`CSCc1cn(C)c2ccccc2c1=O` showed a melting point of 118 to 120 °C. As for `O=C(Nc1ccc(-n2nc(C(F)(F)F)cc2C(F)(F)F)cc1)C1CCCO1` (stereo not given), the melting point was in the range of 113 to 116 °C. As for `CCc1nnc2c(Cl)nc3cc(OC)ccc3n12`, the figure is 173 to 175 °C. `CC12CCC3c4ccc(Cl)cc4CCC3C1CCC2NCc1cccc(C(F)(F)F)c1` (stereo not given) returned a melting point of 97 to 101 °C. On to `N#CCSc1cc(F)cc(F)c1N`, for which the melting point lay within 66 to 67 °C.

Take `O=CN1CCCN(C2=Nc3cc(Cl)ccc3Nc3ccccc32)CC1`: the melting point lay within 152 to 155 °C. Under `Cc1c2c(c(Cc3ccc(C(C)C)cc3)c(C)c1NC(=O)CC(C)(C)C)OCC2` stands 201 to 202 °C.

`O=C(O)CCCCOC(c1ccccc1)(c1ccccc1)c1ccccc1` showed a melting point of 146 to 148 °C. The molecule `CCOC(=O)C[C@H](O)C[C@H](O)/C=C/c1c(-c2ccc(F)cc2)nc(N(C)S(C)(=O)=O)nc1C(C)C` came in with a melting point of 92 to 94 °C. For the molecule `Cc1cc(-c2cc(C(F)(F)F)nc(-n3cnc(-c4cccc(S(N)(=O)=O)c4)c3)n2)ccc1C(F)(F)F`, the melting point turned out to be 180 °C.

In the case of `O=C(NC1CCN(CCCCc2cc(F)cc3c2-c2ccc(F)cc2C3C(=O)NCC(F)(F)F)CC1)c1ccccc1` (stereo not given), the melting point lay in the range of 177 to 179 °C. For the molecule `COC(=O)C1(n2c(=O)[nH]c3ccccc3c2=O)CCCC1`, the melting point lay in the range of 164 to 165 °C. As for `O=C(O)CCCCCc1c(OCc2ccccc2)ccc2cncn12`, the figure is 139 to 141 °C; as for `CCCc1ccnc2c(=O)[nH]c(-c3cc(S(=O)(=O)N4CCNCC4)ccc3OCC)nc12`, 178 to 180 °C.

For `O=C(CC1CCCC1)Nc1c(C(O)(C(F)(F)F)C(F)(F)F)ccc2ccccc12`, the melting point lay in the range of 144 to 145 °C. As to `CCOC(=O)[C@H](Cc1ccc(-c2c(OC)cc(CCO)cc2OC)cc1)NC(=O)c1c(F)cccc1F`, the melting point lay within 115 to 117 °C.

`Cc1ccccc1-c1ccc(C(=O)N2Cc3ccc(C(=O)NCc4ccccc4C(F)(F)F)n3Cc3ccccc32)cc1C` showed a melting point of 126 to 128 °C. Under `CSc1nc(Br)cc(Oc2cccc(C(F)(F)F)c2)n1` stands 70 to 71 °C; under `CCCC(=O)c1c[nH]c2ccc(OC)cc2c1=O`, 252 to 254 °C; under `Cn1ccnc1Sc1ccc(Nc2c(C#N)cnc3cc(/C=C/CCN4CCCC4)ccc23)cc1Cl`, 185 to 191 °C. For the molecule `CC1(C)OC(=O)Nc2c(O)cc(-c3cc(F)cc(C#N)c3)cc21`, the melting point fell in the range of 197 to 198 °C. Turning to `CN1Cc2c(-c3noc(C4CC4)n3)ncn2-c2cccc(Cl)c2C1=O`, the melting point lay in the range of 165 to 169 °C. Under `CCCOc1cccc(Oc2ccc3c(c2)C=C(C(=O)Nc2ccc(CN(C)C4CCOCC4)cc2)CCS3(=O)=O)c1` stands 143 to 144 °C; under `CCOC(=O)c1cc(=O)c2c(OCC(O)COc3ccccc3C)cccc2o1` (stereo not given), 75 to 76 °C; under `OCCNc1nc(NCc2ccccc2)c2ncc(Cl)cc2n1`, 106 to 107 °C.

In the case of `COCCOc1ccc(CCCNS(=O)(=O)c2ccccc2[N+](=O)[O-])c(Oc2ncc(C(F)(F)F)cc2Cl)c1`, the melting point was 126 °C.

Molecule `Cc1nn(C(=O)NC(C)(C)C)c(=O)n1N` came in with a melting point of 132 °C.

For the molecule `CCCCCCCCCCCCCCCCNc1ccc(C2=NCCO2)cc1`, the melting point lay in the range of 123 to 125 °C. `CC(C)CCN1C(=O)C(NC(=O)Nc2cccc(-c3nnn[nH]3)c2)C(=O)N(c2ccccc2)c2ccccc21` (stereo not given) showed a melting point of 220 to 222 °C.

Consider `COc1ccc(C(=O)c2c(F)cccc2F)cc1CC(=O)O`, for which the melting point was found to be 187 °C. `CCOC(=O)C(=CNc1ccc(C)cc1CO)C(=O)OCC`: the melting point fell in the range of 92 to 95 °C. Under `CCOC(=O)C(Oc1ccc(Cl)cc1)c1ccc(Oc2ccc(Cl)cc2)cc1` (stereo not given) stands 52.5 to 54 °C; under `O=C(Cc1ccc2c(c1)OCO2)N[C@H]1CC[C@H](CCN2CCC(c3cccc4c3CCO4)CC2)CC1`, 209 °C.

Turning to `CCCCCCCCCCCCCCCCSCC(COS(C)(=O)=O)NC(=O)OC` (stereo not given), the melting point lay in the range of 82 to 83 °C. As for `CN(C)c1ccc(C(=O)C(F)(F)c2cccc(Cl)c2)cc1`, the figure is 104 to 108 °C; as for `Cc1noc2cc3c(cc12)C1(CO3)C(=O)N(Cc2ncccc2F)c2ccccc21` (stereo not given), 167 to 169 °C. `COC1(c2ccccc2)CCc2c(C(=O)O)cc3c(nc(C)n3C)c2O1` (stereo not given) came in with a melting point of 288 to 289 °C.

As to `COc1c(Cl)ccc(-c2cc(N)c(Cl)c(C(=O)NOC3CCCCO3)n2)c1F` (stereo not given), the melting point was 176 to 179 °C. As for `C=CCOc1ccc(OC)cc1C(=O)c1oc2ccc(Cl)cc2c1N`, the figure is 115 to 116 °C; as for `Cc1ccccc1NC(=O)c1c(C)nn(C)c1N`, 113 to 115 °C; as for `Clc1nsnc1-c1cccnc1`, 48 to 49 °C. `Fc1ccc(C(=C2SCSCS2)c2ccc(F)cc2)cc1` yielded a melting point of 153 to 154 °C.

`COc1cc(SC)ccc1C(=O)c1cnoc1C1CC1` yielded a melting point of 108 °C.

Consider `CCCc1cnc2c(NC(=O)c3c(Cl)cccc3Cl)cccc2c1-n1ccnc1`, for which the melting point fell in the range of 160 to 161 °C.

In turn, `COC(=O)[C@H](Cc1ccc(NC(=S)NCCCc2ccccc2)cc1)NC(=O)[C@@H]1CCCN1S(=O)(=O)c1ccc(C)cc1` came in with a melting point of 74 to 80 °C.

Turning to `COC(=O)C(=CNc1sccc1C(=O)O)SC`, the melting point was in the range of 192 to 194 °C. Under `Cn1cc(C(=S)NCc2ccc(Cl)cc2)c(=O)c2cc(C#CCO)ccc21` stands 200 to 201 °C; under `Cn1c(-c2ccc(-c3ccccn3)cc2)cnc1[C@H](Cc1ccccn1)N(C=O)c1cc2cc(Cl)ccc2o1`, 175 to 180 °C; under `CC1CCCC2C1N2CC(O)Cn1ccnc1[N+](=O)[O-]` (stereo not given), 124 °C.
